Patent US20220168312A1, “MULTICOMPONENT CRYSTAL FORMULATIONS” (UNIVERSITY OF LIMERICK, priority 2019, published 2022)

Assays:
[1] = Tensile stress test of tablets; format: physicochemical
Method: Hardness testing was performed immediately after tableting using a Pharma Test hardness tester. Each compaction force was tested in triplicate. Tensile strength was calculated according to the Equation 1 where F is the load required to fracture the tablet, D the table diameter and H the tablet height: Tensile strength=2F/πDH Equation 1: […]

[2] = cited from earlier work
[3] = format: physicochemical
Method: The product was recovered by filtration and dried in air.
Powder X-ray diffraction (PXRD): X-ray powder diffraction (XRPD) patterns were collected in Bragg-Brentano geometry on a PANalytical Empyrean diffractometer equipped with a sealed tube (Cu Kα12, λ=1.5418 Å) an 1D X'Celerator detector between 4 and 40° 2θ.

[4] = format: physicochemical; remark: listed apart in the source
Method: Stability testing: Accelerated stability testing was conducted by taking 100 mg of powdered sample and placing it into a humidity chamber under 75% relative humidity at 40° C. for 14 days. The samples were analysed before and after testing by PXRD, FT-IR, DSC and TGA.

Thermal analysis (TGA) = format: physicochemical; conditions: 10° C./min, nitrogen
Method: Thermal Analysis: Thermogravimetric analysis (TGA) was performed using a TA Instruments TGA-Q50 on at a constant rate of 10° C./min from 25° C. to 350° C. under a flux of nitrogen of 50 ml/min. Differential Scanning Calorimetry (DSC) was carried out using sealed aluminium pans on a TA instruments DSC-Q2000 differential scanning calorimeter. Temperature calibrations were made using indium as the standard. An empty pan, sealed in the same way as the sample, was used as a reference. All the thermograms were run at a heating/cooling rate of 10° C./min under a nitrogen purge at a rate of 50 ml/min.

[5] = format: physicochemical; conditions: intrinsic dissolution of compacts, 37° C., relative to pure LAM
Method: These compacts were each coated with paraffin wax, leaving one surface exposed and secured to the bottom of the dissolution apparatus with excess paraffin wax. Intrinsic solubility was determined using a 900 ml well filled with 900 ml of degassed, deionised water (or 0.1 M HCl solution) on a Pharma Test USP type II system. The solution had been previously equilibrated at 37° C. and the paddle speed was set to 100 rpm after adding the samples. Aliquots of media were withdrawn at 5, 10, 15, 20 30 and 60 minutes (or 0.25, 0.5, 1, 3, 6, 12 and 24 hours), filtered through 0.45 μm PTFE filters and tested via a UV spectrometer in triplicate.
UV-Vis absorbance measurements were carried on a Cary 60 UV-Vis spectrometer using 1 ml quartz cuvettes.

Compound	tablet hardness / tensile strength ([1]; tablets obtained with a compaction weight lower than 400 kg)	half-life ([2]; in vivo)	oral bioavailability ([2]; orally)	tensile strength compared with LAM ([1]; across a range of compaction forces)	stability as a slurry in water (PXRD) [3]	crystallinity after accelerated stability test (PXRD) [4]	product degradation after accelerated stability test (FT-IR and DSC) [4]	thermally stable up to (thermogravimetric analysis) (Thermal analysis (TGA))	intrinsic dissolution, faster than pure LAM [5]
Nc1nnc(-c2cccc(Cl)c2Cl)c(N)n1 [LAM, lamotrigine]	too brittle to enable hardness testing	rather short half-life	90%	–	–	–	–	–	–
lamotrigine:valproic acid (1:2) ionic cocrystal [LAMVAL]	–	–	–	significantly greater tensile strength	stable as a slurry in water	remains crystalline	no sign of product degradation	around 100 °C	2 ×
